This is an account of results in patent US6946447B2, “MDM2-specific antisense oligonucleotides” (Hybridon, Inc., priority 1997, dated 2005).

Data set [1] deals with JAR-TK-luc and H1299-BP100-luc cells. Nature of the data set: Control luciferase reporters in JAR-TK-luc and H1299-BP100-luc cells. The format is cell-based, human. The procedure:
JAR cells stably transfected with a luciferase reporter driven by the thymidine kinase gene promoter (JAR-TK-luc) and H1299 cells containing no p53 that had been stably transfected with BP100-luciferase (H1299-BP1000-luc) were also tested. […] Similar results were also observed using AS5 in osteosarcoma SJSA cells (data not shown).
A general note: In a reporter assay the amount or activity of a reporter protein is the signal.

For data set [2], the system named is tumor cell lines. Nature of the data set: Cell death / apoptosis in other cell lines. The format is cell-based, human. Conditions: H1299 cells (lack p53).
The subject of data set [3] is p21/WAF1. The note with it: optimal concentration 200 nM; cited from earlier work.
The subject of data set [4] is p53. Nature of the data set: Nuclear p53 level by immunofluorescence staining with Pab1801. It counts as cell-based, human. The note with it: MCF-7 cells, 200 nM, 20 hr.
Data set [5] relates to p21/WAF1. Nature of the data set: p21/WAF1 induction by Western blot in JAR cells. It counts as cell-based, human. Conditions: 200 nM, relative to control-treated cells. The procedure: To assess the ability of the oligonucleotides of the invention to induce the expression of a p53-inducible gene, p21/WAF1 levels were examined in oligonucleotide-treated JAR cells. Total protein was purified from control oligonucleotide-treated cells and from antisense oligonucleotide-treated cells (200 nM oligonucleotide AS5) as described in Example 1. Equal amounts of purified total protein were immunoprecipitated and analyzed by Western blotting carried out for MDM2 detection using a polyclonal rabbit anti-human p21/WAF1 serum. Following hybridization, the blots were exposed to XAR film (Eastman Kodak, Rochester, N.Y.) and the autoradiograms are quantitated by phosphoroimaging.

For a further data set, the system named is MDM2 mRNA. Nature of the data set: Northern blot of MDM2 mRNA in JAR cells. It counts as cell-based, human. Conditions: 200 nM, 18 h. On the procedure: JAR cells were treated with 200 nM of antisense oligonucleotide AS5 (SEQ ID NO:28) with no oligonucleotide, with 200 nM of control oligonucleotide M4 (SEQ ID NO:5). After 18 hours, the treated cells were harvested and RNA was purified and quantitated according to standard methods. (see e.g., Current Protocols in Molecular Biology, John Wiley & Sons Inc. (1995)). Twenty μg of total RNA were run on a 1% agarose denaturing gel. MDM2 mRNA was detected by hybridization using an EcoRI-NcoI fragment specific for the human MDM2 cDNA between nucleotides 310-1633. The filter was then stripped and reprobed with a 1.2 kb fragment, which is a full length human GAPDH cDNA to normalize values on the basis of loading variations, according to standard methods.

Data set [6] relates to MDM2. The note with it: JAR and SJSA cells, 100-400 nM, Lipofectin; cited from earlier work.
Data set [7] has as its system MDM2. Nature of the data set: MDM2 protein level by immunoprecipitation/Western blot in oligonucleotide-treated cells. The format is cell-based, human. The note with it: JAR cells, 18 h, Lipofectin 7 μg/ml, Western blot (FIG. 2A). On the technique in general: In western blotting, separated proteins are transferred to a membrane and probed.
Another data set deals with p53-MDM2 complex. Nature of the data set: Co-immunoprecipitation of p53-MDM2 complex in JAR cells. The format is cell-based, human. The source says:
Protein lysates from JAR cells treated with antisense oligonucleotides as described in Example 1 were immunoprecipitated with anti-p53 monoclonal antibody Pab421 (FIGS. 4A and 4B) (Harlow et al. J. Virol. 39:861-869 (1981)) or with polyclonal antibody 2A10 (panel C) according to the methods described in Example 1. The gel was then transferred onto an Immobilon P membrane (Millipore, Bedford, Mass.) to detect MDM2 co-precipitates.

For data set [8], the system named is JAR cells. Nature of the data set: Induction of apoptosis / cell death in JAR cells. The format is cell-based, human. Conditions: 400 nM. On the procedure:
JAR cells (ATCC) were grown in DMEM medium supplemented with 1% FBS according to standard cell culture techniques. Cells were then treated for 30 hours with growth medium containing 400 nM of either antisense oligonucleotide AS5 (SEQ ID NO:28) complementary to a portion of MDM2-encoding RNA or control oligonucleotide M4 (SEQ ID NO:5), and 7 μg/ml lipofectin (Gibco BRL Paisley, UK). Treated cells were then photographed using a phase contrast microscope.
JAR cells were treated for 24 hours as described in Example 6. Floating cells were harvested and chromosomal DNA was extracted according to standard techniques (Liu et al., Cell 86:147-157 (1996)). Purified DNA was then analyzed by agarose gel electrophoresis on a 2% agarose gel. Following electrophoresis the gel was stained with 0.5 μg/ml ethidium bromide.

For data set [9], the system named is tumor cell lines. Conditions: H1299 cells that lack p53; cited from earlier work.
The test system of data set [10] is JAR cells. Conditions: cited from earlier work.
Data set [11] has as its system p53. Nature of the data set: p53-responsive BP100-luciferase reporter in JAR cells. The format is cell-based, human.

Read-outs that look alike come from different tables or passages of the source. Strand notation (5' to 3'): a small letter for the sugar, then the base; units joined by * are phosphorothioate-linked, units joined directly phosphodiester-linked; [ ] holds rarer units or linkages, { } end groups; capitals alone tell only the bases. d = 2'-deoxy (DNA)

Take “AS5: anti-MDM2 antisense PS-oligo SEQ ID NO:28, 5′-GATCACTCCCACCTTCAAGG-3′ (DNA dG*dA*dT*dC*dA*dC*dT*dC*dC*dC*dA*dC*dC*dT*dT*dC*dA*dA*dG*dG)”: the “activation of reporter gene in control cells” value in data set [1] is given as “did not activate the reporter gene”. Further, the apoptosis result in the data set on tumor cell lines [2] is reported as “did not cause visible apoptosis”; in the data set on tumor cell lines [9], “did not cause visible apoptosis”; in the data set on JAR cells [10], “significant increase in the levels of apoptosis”. Moreover, the “induction of p21 expression” value in the data set with p21/WAF1 [3] is recorded as “up to 6.6 fold”. Moreover, the “nuclear p53 staining” value in the data set on p53 [4] is listed as “similar, but weaker”. In addition, the “induction of p21/WAF1” value in the data set on p21/WAF1 [5] is recorded as “up to 6.6 fold”. For the same substance, the “increase of MDM2 mRNA” value in the data set with MDM2 mRNA is reported as 2.5 fold. Further, the “molecular weight of the MDM2 mRNA band” value in the data set with MDM2 mRNA is recorded as “slight decrease in the molecular weight of the MDM2 mRNA band”. Further, the “decrease of MDM2 protein levels” value in the data set on MDM2 [6] was 3-5 fold. For the same substance, in the data set on MDM2 [7], the “inhibition of MDM2 expression” value is 3-5 fold. Moreover, the “total p53 levels” value in the data set with p53-MDM2 complex (JAR cells (FIG. 4A)) is listed as “did not change”. In addition, the “amount of MDM2 co-precipitated with p53” value with p53-MDM2 complex (JAR cells (FIG. 4B)) was “reduced”. The “chromosomal DNA cleavage in floating cells” value in the data set on JAR cells [8] (24 h, agarose gel) was “nucleosomal-sized low molecular weight bands characteristic of apoptosis”. Besides, in the data set on JAR cells [8] (30 h, Lipofectin), the “cell death / apoptosis morphology” value was “induced significant cell death”. The “induction of p53 activity among the initial antisense oligonucleotides tested” value with p53 [11] is given as “most effective”. Also, the “activation of p53-responsive reporter expression” value in the data set on p53 [11] (JAR BP100-luc, 200 nM, 24 h) stood at 7 fold. Moreover, in the data set on p53 [11] (JAR BP100-luc, 48 h, AS5 200 nM, CPT alone, AS5 alone or co-incubation), the “activation of the p53 reporter” value came out at 17 fold.
